Assays:
Assay type in all cases: cell-based
[1] = target: T1, human thiamine transporter 2 (hTHTR-2) (Homo sapiens, UniProt Q9BZV2); experiment: [3H]MPP+ uptake in HEK-hTHTR-2 cells with and without fedratinib
T1 sequence (Q9BZV2 1-496): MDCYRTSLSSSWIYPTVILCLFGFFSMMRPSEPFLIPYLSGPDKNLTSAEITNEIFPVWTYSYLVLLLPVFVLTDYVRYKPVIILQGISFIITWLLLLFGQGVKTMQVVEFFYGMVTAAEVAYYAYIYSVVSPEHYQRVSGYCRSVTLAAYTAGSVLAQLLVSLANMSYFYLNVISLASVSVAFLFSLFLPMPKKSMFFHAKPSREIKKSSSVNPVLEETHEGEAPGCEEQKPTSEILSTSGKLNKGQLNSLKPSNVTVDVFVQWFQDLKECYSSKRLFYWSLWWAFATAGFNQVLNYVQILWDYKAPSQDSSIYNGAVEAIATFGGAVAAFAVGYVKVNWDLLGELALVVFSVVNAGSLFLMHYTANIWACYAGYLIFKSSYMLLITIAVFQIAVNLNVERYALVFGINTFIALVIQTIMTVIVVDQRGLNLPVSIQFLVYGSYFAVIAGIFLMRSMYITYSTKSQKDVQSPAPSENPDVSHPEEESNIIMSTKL

[2] = target: T1, human thiamine transporter 2 (hTHTR-2); experiment: saturable […]metformin uptake
[3] = target: T1, human thiamine transporter 2 (hTHTR-2); experiment: inhibition of [3H]thiamine uptake in HEK-hTHTR-2 cells
[4] = target: T1, human thiamine transporter 2 (hTHTR-2); experiment: inhibition of [3H]thiamine and […]metformin uptake in HEK-hTHTR-2 cells at […]
[5] = target: T1, human thiamine transporter 2 (hTHTR-2); experiment: saturable [3H]thiamine uptake

C[n+]1ccc(-c2ccccc2)cc1 [MPP+, 1-methyl-4-phenylpyridinium]
[3H]MPP+ uptake in HEK-hTHTR-2 cells with and without fedratinib [1]: 1-methyl-4-phenylpyridinium (MPP^+) and the histamine H2-receptor antagonist famotidine were substrates of hTHTR-2

CN(C)C(=N)N=C(N)N [metformin, 1,1-dimethylbiguanide]
IC50 [2]: 680 ± 140 µM

[H]/N=C(/N)N/C(=N/[H])NCCc1ccccc1 [phenformin]
IC50 [3]: 244 ± 28.4 µM

Cc1ncc(C[n+]2cccc(CCO)c2C)c(N)n1 [pyrithiamine]
inhibition of [3H]thiamine and [14C]metformin uptake in HEK-hTHTR-2 cells at 200 [4]: antithiamine analogues (amprolium and pyrithiamine) and prescription drugs (chloroquine, verapamil, and famotidine) were shown to be inhibitors

Cc1ncc(C[n+]2csc(CCO)c2C)c(N)n1 [thiamine]
IC50 [5]: 1.03 ± 0.12 µM
